# Measurements taken from ChEMBL document CHEMBL5465560, “Selectivity Literature for EUbOPEN Chemogenomic Library” (2024).
# Columns and labels:
# [1] = target: T1, Interleukin-1 receptor-associated kinase 3 (Homo sapiens) (UniProt Q9Y616); test: Selectivity interaction (KinomeScan (DiscoverX)) EUB0000655a IRAK3; conditions: at 10 µM
# T1 sequence (whole entry): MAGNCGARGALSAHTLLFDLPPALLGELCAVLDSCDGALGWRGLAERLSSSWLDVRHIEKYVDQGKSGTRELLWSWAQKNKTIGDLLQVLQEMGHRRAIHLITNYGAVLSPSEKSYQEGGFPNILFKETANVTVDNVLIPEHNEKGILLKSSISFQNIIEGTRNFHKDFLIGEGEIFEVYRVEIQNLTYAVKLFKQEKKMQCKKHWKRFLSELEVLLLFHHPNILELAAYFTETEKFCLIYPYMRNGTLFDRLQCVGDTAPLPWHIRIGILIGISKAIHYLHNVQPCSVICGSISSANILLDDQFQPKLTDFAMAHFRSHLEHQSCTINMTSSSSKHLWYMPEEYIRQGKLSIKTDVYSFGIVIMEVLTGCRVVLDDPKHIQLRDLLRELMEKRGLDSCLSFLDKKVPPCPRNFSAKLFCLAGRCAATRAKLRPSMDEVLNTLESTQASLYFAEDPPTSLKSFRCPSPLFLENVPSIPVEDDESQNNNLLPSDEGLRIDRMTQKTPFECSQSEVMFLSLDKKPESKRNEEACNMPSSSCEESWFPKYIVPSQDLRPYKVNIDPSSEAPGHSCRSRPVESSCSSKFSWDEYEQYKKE
# [2] = test system: Epidermal growth factor receptor (Homo sapiens), P00533 [UNDEFINED MUTATION]; test: Selectivity interaction (ProQinase) EUB0000171b EGFR; conditions: at 1 µM
# [3] = target: T2, Phosphatidylinositol 3-kinase C2 domain-containing subunit gamma (Homo sapiens) (UniProt O75747); test: Selectivity interaction (ProQinase) EUB0000171b PIK3C2G
# T2 sequence (whole entry): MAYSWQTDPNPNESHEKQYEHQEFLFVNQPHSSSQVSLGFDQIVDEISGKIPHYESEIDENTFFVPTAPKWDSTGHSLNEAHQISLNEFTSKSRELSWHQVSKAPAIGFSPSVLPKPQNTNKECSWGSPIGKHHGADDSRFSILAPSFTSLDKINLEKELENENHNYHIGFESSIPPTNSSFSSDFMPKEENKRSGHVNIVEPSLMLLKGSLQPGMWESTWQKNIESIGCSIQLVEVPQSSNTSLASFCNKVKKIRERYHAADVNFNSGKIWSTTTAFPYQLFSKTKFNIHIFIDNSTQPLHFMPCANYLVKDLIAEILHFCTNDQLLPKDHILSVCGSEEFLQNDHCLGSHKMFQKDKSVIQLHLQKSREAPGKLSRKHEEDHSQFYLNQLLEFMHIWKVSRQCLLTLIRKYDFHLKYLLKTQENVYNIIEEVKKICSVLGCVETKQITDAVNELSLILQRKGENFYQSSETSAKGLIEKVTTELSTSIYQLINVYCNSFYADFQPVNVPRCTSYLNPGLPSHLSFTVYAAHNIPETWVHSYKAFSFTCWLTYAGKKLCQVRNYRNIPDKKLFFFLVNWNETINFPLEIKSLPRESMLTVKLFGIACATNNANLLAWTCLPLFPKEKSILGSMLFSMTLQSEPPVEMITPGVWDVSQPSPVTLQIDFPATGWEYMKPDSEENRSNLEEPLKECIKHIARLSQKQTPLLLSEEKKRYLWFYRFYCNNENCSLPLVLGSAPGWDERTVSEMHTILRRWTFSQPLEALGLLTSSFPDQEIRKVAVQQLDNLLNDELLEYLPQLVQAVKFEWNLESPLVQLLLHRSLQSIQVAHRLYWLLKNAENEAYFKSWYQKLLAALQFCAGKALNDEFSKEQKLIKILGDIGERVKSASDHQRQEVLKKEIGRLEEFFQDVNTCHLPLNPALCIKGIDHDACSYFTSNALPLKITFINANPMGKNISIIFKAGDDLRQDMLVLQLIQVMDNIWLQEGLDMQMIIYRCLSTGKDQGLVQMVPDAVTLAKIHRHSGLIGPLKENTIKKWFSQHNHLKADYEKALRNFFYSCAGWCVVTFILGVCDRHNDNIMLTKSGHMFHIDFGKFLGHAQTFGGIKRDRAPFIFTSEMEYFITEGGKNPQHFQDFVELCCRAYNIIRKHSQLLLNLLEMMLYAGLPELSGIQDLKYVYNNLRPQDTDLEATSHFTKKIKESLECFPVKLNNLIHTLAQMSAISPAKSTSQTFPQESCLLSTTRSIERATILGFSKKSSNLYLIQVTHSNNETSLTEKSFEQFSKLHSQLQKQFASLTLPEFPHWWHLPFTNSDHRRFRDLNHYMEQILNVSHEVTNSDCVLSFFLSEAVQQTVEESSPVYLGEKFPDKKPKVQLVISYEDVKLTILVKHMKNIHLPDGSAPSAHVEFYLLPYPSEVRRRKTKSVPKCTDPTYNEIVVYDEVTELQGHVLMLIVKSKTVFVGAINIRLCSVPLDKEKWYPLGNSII
# Epidermal growth factor receptor (Homo sapiens), P00533 [UNDEFINED MUTATION], sequence (P00533 whole entry, looked up, change not shown, the tested form may be a part): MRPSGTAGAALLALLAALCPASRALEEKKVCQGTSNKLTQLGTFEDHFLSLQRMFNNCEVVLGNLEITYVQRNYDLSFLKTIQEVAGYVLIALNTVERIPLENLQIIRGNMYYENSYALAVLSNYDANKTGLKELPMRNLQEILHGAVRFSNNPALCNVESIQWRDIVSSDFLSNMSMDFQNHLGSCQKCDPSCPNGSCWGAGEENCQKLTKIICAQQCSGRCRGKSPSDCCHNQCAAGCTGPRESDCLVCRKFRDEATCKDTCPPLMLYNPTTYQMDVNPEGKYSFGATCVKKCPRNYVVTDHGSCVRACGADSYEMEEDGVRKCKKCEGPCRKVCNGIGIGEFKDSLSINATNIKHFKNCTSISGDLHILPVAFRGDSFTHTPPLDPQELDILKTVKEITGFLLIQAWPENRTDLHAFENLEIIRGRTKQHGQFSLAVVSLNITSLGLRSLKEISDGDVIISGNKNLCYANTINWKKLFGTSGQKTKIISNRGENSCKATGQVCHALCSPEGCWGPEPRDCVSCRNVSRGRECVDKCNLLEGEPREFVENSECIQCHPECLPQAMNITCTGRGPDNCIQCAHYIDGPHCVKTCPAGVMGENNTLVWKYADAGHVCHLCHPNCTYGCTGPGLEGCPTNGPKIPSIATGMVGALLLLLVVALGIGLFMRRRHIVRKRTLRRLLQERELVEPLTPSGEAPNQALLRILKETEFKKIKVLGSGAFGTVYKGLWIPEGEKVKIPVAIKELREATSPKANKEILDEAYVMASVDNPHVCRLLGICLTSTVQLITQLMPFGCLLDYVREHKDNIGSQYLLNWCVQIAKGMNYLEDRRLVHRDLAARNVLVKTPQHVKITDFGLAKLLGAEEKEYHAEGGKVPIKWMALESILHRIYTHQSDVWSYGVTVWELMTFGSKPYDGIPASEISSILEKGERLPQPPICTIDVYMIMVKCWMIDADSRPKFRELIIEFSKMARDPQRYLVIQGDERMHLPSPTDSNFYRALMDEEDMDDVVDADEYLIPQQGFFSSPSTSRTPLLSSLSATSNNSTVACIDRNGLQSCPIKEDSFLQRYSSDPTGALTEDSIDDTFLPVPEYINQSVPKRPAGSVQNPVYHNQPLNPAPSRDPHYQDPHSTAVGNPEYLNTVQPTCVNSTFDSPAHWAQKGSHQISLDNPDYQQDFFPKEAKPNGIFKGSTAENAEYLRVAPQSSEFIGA
Compound,% of control [1] [%],% of control [2] [%],% of control ([3]; at 1 µM) [%],% of control ([3]; at 5 µM) [%]
CN(C)CCOc1ccc(-c2nc(-c3ccncc3)c(-c3ccc4c(c3)CC/C4=N\O)[nH]2)cc1,71,–,–,–
C=CC(=O)Nc1cccc(C(=O)Nc2ccc(Nc3cc(-c4[nH]c(SC)nc4C)ccn3)cc2)c1,–,85,129,108
